From patent US11440907B1 (Merck Patent GmbH, priority 2018, dated 2022) come the findings set out here.

The subject of the first assay is XBP1(u)-luciferase splicing reporter in HepG2 hepatoma cells. Put plainly: HepG2 XBP1 reporter assay (XBP1(u)-Luc). It is filed as cell-based. To be noted: 6 hours after compound addition, Table 4. The text has this:
HepG2 XBP1 Reporter Assay
HepG2 hepatoma cells were transduced with a retrovirus encoding the cDNA for unspliced (u) XBP1, which contains a non-processed intron, fused to the cDNA for firefly luciferase. Upon induction of ER stress, the non-processed intron of XBP1(u) is spliced out by active IRE1alpha endonuclease. The resulting spliced (s) XBP1 is now in frame with luciferase which causes the production of active luciferase protein, resulting in bioluminescence
HepG2 XBP1(u)-Luc cells were plated […] Cultured cells with a stably transfected reporter construct were plated at approximately 30,000 cells per well into 96 well multi-well plates for twenty four hours. The testing compounds were then added to the wells in 3-fold serial dilutions using a twenty seven micromolar top concentration. A series of control wells for each cell type received only compound solvent. Six hours after the addition of compound, reporter activity for luciferase was assayed, by addition of the SteadyGlo luminescence reagent (Promega). The reporter luminescence activity was measured using Pherastar plate reader (BMG Labtech). Readings was normalized to DMSO only treated cells, and normalized activities were then used in the IC50 calculations. The HepG2 XBP1 reporter assay data are summarized in Tables 3-5: A<0.6 μM; 0.6 μM≤B<2.0 μM; 2.0 μM≤C<5.0 μM; D≥5.0 μM.
(In general: Reporter assays use an easily measured gene product as a stand-in for the process of interest.)
What is called IC50 is the point on the concentration scale where inhibition reaches its midpoint. Compound `COc1cc(Cl)c([C@H]2COCCCN2c2cc(C)nc(N)n2)cc1O` [C-95] came in with a 50% inhibitory concentration (IC50) of under 0.6 µM.

The same assay, now with this note: Homo sapiens, 6 h, six hours after addition of compound.
Regarding `Cc1cc(N2CCCOCC2c2cc(CC(=O)O)c(C#N)cc2Cl)nc(N)n1` [D-156], the IC50 is at least 5 µM.
As for `Cc1cc(N2CCCOC[C@H]2c2cc(O)c(C)cc2Cl)nc(N)n1` [D-165], the IC50 is at least 5 µM.
`C#CCOc1cc(Cl)c([C@H]2COCCCN2c2cc(C)nc(N)n2)cc1OC` [D-105] showed an IC50 of under 0.6 µM.
For `COC(=O)c1cc(Cl)c(C2COCCCN2c2cc(C)nc(N)n2)cc1C#N` [D-135], the IC50 was at least 5 µM.
In turn, `Cc1cc(N2CCCOC[C@@H]2c2cc3c(cc2Cl)NC[C@@](C)(C(=O)N2CCOCC2)O3)nc(N)n1` [D-126] gave a 50% inhibitory concentration (IC50) of under 0.6 µM.
Turning to `Cc1cc(N2CCCOC[C@@H]2c2cc(O)c(C(=O)NC3CC3)cc2Cl)nc(N)n1` [D-131], the IC50 was at least 5 µM.
As for `Cc1cc(N2CCCOCC2c2cc3c(cc2Cl)NC[C@@](C)(C(=O)NC(C)C)O3)nc(N)n1` (stereo partly drawn) [D-124], the IC50 is under 0.6 µM.
In turn, `Cc1cc(N2CCCOCC2c2cc(O)c(S(C)(=O)=O)cc2Cl)nc(N)n1` [D-79] came in with an IC50 of 0.6 to 2 µM.
`C#CCOc1cc(Cl)c([C@@H]2COCCCN2c2cc(C)nc(N)n2)cc1OC` [D-178] came in with an IC50 of at least 5 µM.
Same read-out and setting: as for `Cc1cc(N2CCCOC[C@@H]2c2cc(O)c(C(=O)N3CCOCC3)cc2Cl)nc(N)n1` [D-137], the figure is under 0.6 µM; as for `CCOc1cc([C@H]2COCCCN2c2cc(C)nc(N)n2)c(Cl)cc1OCC(N)=O` [D-101], under 0.6 µM; as for `Cc1cc(N2CCCOC[C@H]2c2cc(O)c(C(=O)N(C)C)cc2Cl)nc(N)n1` [D-183], at least 5 µM.
As for `Cc1cc(N2CCCOCC2c2cc(O)c(NC(=O)C3CC3)cc2Cl)nc(N)n1` [D-112], the half-inhibitory concentration (IC50) is under 0.6 µM.
On to `C=CCOc1cc(Cl)c(C2COCCCN2c2cc(C)nc(N)n2)cc1OCC` [D-48], for which the IC50 was in the range of 0.6 to 2 µM.
For `Cc1cc(N2CCCOC[C@H]2c2cc(CN)c(Cl)cc2C)nc(N)n1` [D-174], the concentration for half-maximal inhibition (IC50) was at least 5 µM.
Regarding `CNC(=O)c1cc(Cl)c([C@@H]2COCCCN2c2cc(C)nc(N)n2)cc1O` [D-182], the IC50 was at least 5 µM.
Compound `CS(=O)(=O)c1ccc(C2COCCCN2c2ccnc(N)n2)c(Cl)c1` [D-138] had an IC50 of at least 5 µM.
As to `Cc1cc(N2CCCOC[C@@H]2c2ccc([C@@H]3CCCN3)cc2Cl)nc(N)n1` [D-91], the IC50 was under 0.6 µM.
Same read-out and setting: as for `Cc1cc(N2CCCOC[C@H]2c2ccc([C@@H]3CCCN3)cc2Cl)nc(N)n1` [D-88], the figure is 2 to 5 µM.
For `Cc1cc(N2CCCOCC2c2cnc(CS(C)(=O)=O)cc2OC(F)F)nc(N)n1` [D-85], the IC50 lay in the range of 0.6 to 2 µM.
For the compound `Cc1cc(N2CCCOC[C@H]2c2cc(O)c(C(N)=O)cc2Cl)nc(N)n1` [D-180], the IC50 is at least 5 µM.
`Cc1cc(N2CCCOC[C@H]2c2cc(O)c(C(=O)NC3CC3)cc2Cl)nc(N)n1` [D-186] gave an IC50 of at least 5 µM.
The compound `CCOc1cc(C2COCCCN2c2cc(C)nc(N)n2)c(Cl)cc1OCC(N)=O` [D-72] showed an IC50 of 0.6 to 2 µM.
As for `Cc1cc(N2CCCOC[C@H]2c2ccc(C3CCN(C4COC4)CC3)cc2Cl)nc(N)n1` [D-163], the IC50 is at least 5 µM.
In turn, `Cc1cc(N2CCCOCC2c2sc(Cl)nc2Cl)nc(N)n1` [D-103] displayed an IC50 of 2 to 5 µM.
Regarding `Cc1cc(N2CCCOC[C@@H]2c2ccc(C(C)(C)S(C)(=O)=O)cc2Cl)nc(N)n1` [D-191], the IC50 is at least 5 µM.
With `Cc1cc(N2CCCOC[C@@H]2c2cc3c(cc2Cl)OCC2(CC2)CO3)nc(N)n1` [D-16], the IC50 was 0.6 to 2 µM.
Consider `Cc1cc(N2CCCOC[C@@H]2c2ccc(C3CCN(C4COC4)CC3)cc2Cl)nc(N)n1` [D-69], for which the IC50 lay in the range of 0.6 to 2 µM.
In the case of `CCOc1cc([C@@H]2COCCCN2c2cc(C)nc(N)n2)c(Cl)cc1OCC(N)=O` [D-176], the IC50 is at least 5 µM.
For `Cc1cc(N2CCCOC[C@@H]2c2ccc(CS(C)(=O)=O)nc2OC(F)F)nc(N)n1` [D-93], the IC50 is under 0.6 µM.
Take `Cc1cc(N2CCCOCC2c2ccc(Cl)cc2C#N)nc(N)n1` [D-107]: the IC50 fell in the range of 0.6 to 2 µM.
`CC(=O)Nc1cc(Cl)c(C2COCCCN2c2cc(C)nc(N)n2)cc1O` [D-109]: the IC50 was under 0.6 µM.
On the same count and under the same terms, as for `Cc1cc(N2CCCOC[C@@H]2c2cc(O)c(C(=O)NCCO)cc2Cl)nc(N)n1` [D-130], the figure is at least 5 µM.
On to `Cc1cc(N2CCCOCC2c2ccc(C3CCN(C4COC4)CC3)cc2Cl)nc(N)n1` [D-70], for which the IC50 fell in the range of 2 to 5 µM.
With `Cc1cc(N2CCCOCC2c2ccc(C(=O)O)cc2Cl)nc(N)n1` [D-187], the IC50 was at least 5 µM.
For the compound `Cc1cc(N2CCCOC[C@@H]2c2cnc(CS(C)(=O)=O)cc2Cl)nc(N)n1` [D-166], the IC50 was at least 5 µM.
Compound `Cc1cc(N2CCCOCC2c2ccc(Br)cc2OC(F)(F)F)nc(N)n1` [D-140] showed an IC50 of at least 5 µM.
For `CCc1cc(N2CCCOC[C@H]2c2ccc(OS(C)(=O)=O)cc2Cl)nc(N)n1` [D-162], the concentration for half-maximal inhibition (IC50) was at least 5 µM.
`CCOC(=O)c1cc(Cl)c(C2COCCCN2c2cc(C)nc(N)n2)cc1C#N` [D-134] returned an IC50 of at least 5 µM.
In turn, `CNC(=O)c1cc(Cl)c(C2COCCCN2c2cc(C)nc(N)n2)cc1O` [D-118] registered an IC50 of 0.6 to 2 µM.

The assay is the same for the next values; noted with them: Homo sapiens, 6 hours after compound addition, Table 4.
For `Nc1nccc(N2CCCOC[C@H]2c2cc3c(cc2Cl)OCCCO3)n1` [C-71], the IC50 is at least 5 µM.
In the case of `Cc1cc(N2CCCOCC2c2cc3c(cc2Cl)COCO3)nc(N)n1` (stereo not shown) [C-96], the IC50 was in the range of 0.6 to 2 µM.
With `CCOc1cc(Cl)c([C@@H]2COCCCN2c2cc(C)nc(N)n2)cc1OCC` [C-104], the IC50 is at least 5 µM.
`CCNc1cc(Cl)c([C@H]2COCCCN2c2cc(C)nc(N)n2)cc1C` [C-146] came in with an IC50 of under 0.6 µM.
As to `Cc1cc(N2CCCOCC2c2cc(N)c(OC(F)(F)F)cc2Cl)nc(N)n1` (stereo not shown) [C-141], the concentration for half-maximal inhibition (IC50) is under 0.6 µM.
`CCOC(=O)[C@H](C)Oc1cc(Cl)c([C@H]2COCCCN2c2cc(C)nc(N)n2)cc1OC` [C-150] registered an IC50 of 0.6 to 2 µM.
Take `Nc1nccc(N2CCCOC[C@@H]2c2cc3c(cc2Cl)OCCCO3)n1` [C-72]: the concentration for half-maximal inhibition (IC50) was under 0.6 µM.
The same measure, in the same setting: then `Cc1cc(N2CC(C)COCC2c2ccc(CS(C)(=O)=O)cc2Cl)nc(N)n1` (stereo not shown) [C-63, 4-[3-(2-Chloro-4-methanesulfonylmethyl-phenyl)-6-methyl-[1,4]oxazepan-4-yl]-6-methyl-pyrimidin-2-ylamine], with at least 5 µM; and `Cc1cc(Cl)c(C2COCCCN2c2cc(N)nc(N)n2)cc1C` (stereo not shown) [C-27], with 0.6 to 2 µM; and `Cc1cc(N2CCCOC=C2c2c(O)cc(N3CCC(C)(O)CC3)cc2Cl)nc(N)n1` [C-127], with 2 to 5 µM.
Same read-out and setting: then `Cc1cc(N2CCCOCC2c2cc(F)c(-c3ccncc3)cc2Cl)nc(N)n1` (stereo not shown) [C-48], with 0.6 to 2 µM; and `CCOc1cc(Cl)c([C@@H]2COCCCN2c2cc(C)nc(N)n2)cc1OC` [C-86], with at least 5 µM.
Consider `Cc1cc(N2CCCOC[C@@H]2c2ccc(CS(C)(=O)=O)cc2F)nc(N)n1` [C-50, 4-[(S)-3-(2-Fluoro-4-methanesulfonylmethyl-phenyl)-[1,4]oxazepan-4-yl]-6-methyl-pyrimidin-2-ylamine], for which the IC50 was under 0.6 µM.
Regarding `Cc1cc(N2CCCOCC2c2cc(C)c(Cl)cc2Cl)nc(N)n1` (stereo not shown) [C-10], the IC50 was 2 to 5 µM.
For the compound `CCOc1cc(Cl)c([C@H]2COCCCN2c2cc(C)nc(N)n2)cc1OC` [C-85], the IC50 was under 0.6 µM.
As to `CSCOc1ccc(C2COCCCN2c2cc(C)nc(N)n2)c(Cl)c1` (stereo not shown) [C-105, 4-[3-(2-Chloro-4-methylsulfanylmethoxy-phenyl)-[1,4]oxazepan-4-yl]-6-methyl-pyrimidin-2-ylamine], the IC50 was under 0.6 µM.
On the same count and under the same terms, then `Cc1cc(N2CCCOCC2c2cc3c(cc2Cl)CCCN3C)nc(N)n1` (stereo not shown) [C-129], with at least 5 µM.
In the case of `Cc1cc(N2CCCOC[C@H]2c2cc3c(cc2Cl)NC(=O)CO3)nc(N)n1` [C-131], the IC50 is 0.6 to 2 µM.
Compound `COc1cc(Cl)c(C2COCCCN2c2cc(C)nc(N)n2)cc1F` (stereo not shown) [C-28] registered an IC50 of 0.6 to 2 µM.
Compound `CCOc1cc(Cl)c([C@H]2COCCCN2c2cc(C)nc(N)n2)cc1Cl` [C-117] yielded an IC50 of under 0.6 µM.
`CSCOc1ccc([C@@H]2COCCCN2c2cc(C)nc(N)n2)c(Cl)c1` [C-122, 4-[(R)-3-(2-Chloro-4-methylsulfanylmethoxy-phenyl)-[1,4]oxazepan-4-yl]-6-methyl-pyrimidin-2-ylamine] had an IC50 of under 0.6 µM.
The compound `CC1=C(F)CN(c2ccc([C@H]3COCCCN3c3cc(C)nc(N)n3)c(Cl)c2)CC1` [C-123] displayed a 50% inhibitory concentration (IC50) of 0.6 to 2 µM.
Still for that read-out and setting: then `COc1cc([C@@H]2COCCCN2c2cc(C)nc(N)n2)c(Cl)cc1O` [C-79], with at least 5 µM; and `Cc1cc(N2CCCOCC2c2cc3c(cc2Cl)OCC(C)(C)CO3)nc(N)n1` (stereo not shown) [C-55], with 0.6 to 2 µM.
The same measure, in the same setting: then `Cc1cc(N2CCCOCC2c2cc(C)c(O)cc2Cl)nc(N)n1` (stereo not shown) [C-128], with 0.6 to 2 µM.
In turn, `COc1cc(C2COCCCN2c2nc(C)nc(N)n2)c(Cl)cc1N1CCCCC1` (stereo not shown) [C-101] registered an IC50 of 0.6 to 2 µM.
Compound `CCOC(=O)[C@H](C)Oc1cc(Cl)c([C@@H]2COCCCN2c2cc(C)nc(N)n2)cc1OC` [C-149] came in with an IC50 of 2 to 5 µM.
The compound `CC(=O)Nc1cc(Cl)c(N2CCCOCC2c2cc(C)nc(N)n2)cc1C` (stereo not shown) [C-143] had a half-maximal inhibitory concentration (IC50) of 0.6 to 2 µM.
`Cc1cc(N2CCCOCC2c2cc(CS(C)(=O)=O)ccc2Cl)nc(N)n1` (stereo in doubt) [C-52, 4-[(R)-3-(2-Chloro-5-methanesulfonylmethyl-phenyl)-[1,4]oxazepan-4-yl]-6-methyl-pyrimidin-2-ylamine]: the IC50 is 0.6 to 2 µM.
